Laboratory results from patent US20040062780A1, “Compositions and methods useful for the reduction of fine lines and wrinkles” (priority 2002, published 2004).
One block for each compound: values may come before it.

Columns and labels:
[1] = Spontaneous liposome formation of single lipids mixed with aqueous solution; format: physicochemical
Experimental: Lipids were tested at 2 weight percent in aqueous solution. Note that GDL means glycerol dilaurate, GDO means glycerol dioleate, GDM means glycerol dimyristate, GDP means glycerol dipalmitate, and GDS means glycerol distearate. For each lipid, the number after “PEG” indicates the numbers of C2H4O subunits in the PEG chain. The unsaturated dioleate lipids have similar packing parameters to the saturated dimyristate lipids.
Single lipids were tested for their ability to spontaneously form liposomes when mixed with an aqueous solution. PEG-12 GDO was obtained from Global 7 (New Jersey). All other lipids were synthesized for the experiment (see Table 1). For each experiment, water and lipid were separately equilibrated at the appropriate temperature. Two weight percent lipid was added to the aqueous solution, and the solution was analyzed for the presence of liposomes by optical light microscopy, cryo TEM, freeze fracture TEM, or hot stage microscopy.

[2] = Dissolution of compounds in PEG-12 GDO lipid; format: physicochemical
Experimental: It will be appreciated that, while liposomes form spontaneously at the temperature of formation, cooling of liposomes after formation results in liposomes in trapped kinetic states. To minimize distortions in liposome structure upon such cooling, sterols such as cholesterol may be mixed with the lipid before liposome formation. It has been observed that cholesterol may be dissolved in PEG-12 GDO at up to about 10 percent by weight.
Tretinoin (all-trans retinoic acid), 6 mg, was dissolved in 500 μl of PEG-12 Glyceryl Dioleate. […] Distilled water, […], was added to the mixture and gently mixed. This yielded a concentration of 1 mg/ml. […] This solution can easily be incorporated into a cream, gel or lotion dosage form.

- Spontaneous Liposomes at 20° C. ([1]; 2 weight percent lipid in aqueous solution, 20° C.): YES
- Spontaneous Liposomes at 37° C. ([1]; 2 weight percent lipid in aqueous solution, 37° C.): YES
- Spontaneous Liposomes at 60° C. ([1]; 2 weight percent lipid in aqueous solution, 60° C.): YES
Compound: PEG-12 Glyceryl Dioleate [PEG-12 GDO]
- spontaneous liposome formation ([1]; all temperatures tested): spontaneously forms liposomes at all temperatures tested

- dissolution in PEG-12 Glyceryl Dioleate ([2]; 6 mg in 500 μl of PEG-12 Glyceryl Dioleate): Dissolution was complete
Compound: CC1=C(/C=C/C(C)=C/C=C/C(C)=C/C(=O)O)C(C)(C)CCC1 [Tretinoin, all-trans retinoic acid, reference compound]

- amount dissolved in PEG-12 GDO ([2]; in PEG-12 GDO): up to 10 percent by weight
Compound: CC(C)CCC[C@@H](C)[C@H]1CC[C@H]2[C@@H]3CC=C4C[C@@H](O)CC[C@]4(C)[C@H]3CC[C@]12C [cholesterol]
